What all share (assay type): cell-based, murine
For experiment [1], the system named is DC2.4 cells (B3Z activation). The experiment in a line: Pathway inhibitor studies in DC2.4/B3Z assay. The method, then: […]. The cytotoxicity of all inhibitors was assessed using CellTiter96 Aqueous One (Promega (Madison WI, USA); cat. no. G3580).
. The cells were then washed 2× before addition of BzFβ. Cells exposed to the other inhibitors were incubated with an appropriate concentration of each inhibitor, seen in Table 1 in cDMEM at 37° C., 5% CO2. […]. Cells were then incubated for 6 h. Before B3Z addition the inhibitor and BzFβ were removed, and the cells washed with warm DPBS. If testing peptide presentation, the DC2.4 cells were pulsed with 0.5 nM […] for 1 h prior to being cocultured with B3Z.

In experiment [2] the test system is B16F10 cells (B3Z activation). Nature of the experiment: B3Z activation by B16F10 (OVA or SIINFEKL). The method, then:
B16F10 were plated at a density of 2.5 or 5×10^4 cells/well (100 μL/well in 96 well plates) and cultured overnight in cDMEM. The cells were washed with DPBS and then treated for 1-24 h with the indicated concentrations of BzFβ or co-treated with the indicated concentrations of BzFβ and 1.0 mg/mL OVA, suspended in complete media. Cells treated with BzFβ only were pulsed with 2 nM SIINFEKL pulsed for 1 h. The cells were then co-cultured with equal number of B3Z cells at 37° C. for 19 h.
In this experiment the activity of the dipeptide, GL, was also examined, as it has been previously reported to function as a peptide exchange factor. (Saini, et al., Dipeptides catalyze rapid peptide exchange on MHC class I molecules. Proc Natl Acad Sci USA. 2015 Jan. 6; 112(1):202-7; Saini, et al., Empty peptide-receptive MHC class I molecules for efficient detection of antigen-specific T cells. Sci Immunol. 2019 Jul. 19; 4(37):eaau9039). B16F10 were plated at a density of 2.5 or 5×10^4 cells/well (100 μL/well in 96 well plates) and cultured overnight in cDMEM. The cells were washed with DPBS and then co-treated for 24 h with 10 mM (1.88 mg/mL) of GL and 1.0 mg/mL OVA or were pulsed with 2 nM SIINFEKL for 1 h following treatment with 10 mM GL in complete media. The cells were then co-cultured with an equal number of B3Z cells at 37° C. for 19 h.

The target of experiment [3] is T1, H-2Kb/SIINFEKL complex on DC2.4 (Mus musculus, UniProt P01901).
T1 construct: DC2.4 are a C57Bl/6 lineage murine cell line and as such they express MHC class I H-2Kb and H-2Db; endogenous in cells; host or cells: DC2.4 (murine dendritic cell line, from Dr. Kenneth Rock)
The experiment in a line: BFA decay experiment (SIINFEKL off-rate) on DC2.4. The following applies: 24 h pre-treatment, 1 h 30 nM SIINFEKL

Experiment [4] has as its system MHC class I H-2Kb on DC2.4. The experiment in a line: MHC class I recovery after acid stripping of DC2.4. The following applies: 25 μg/mL BzFβ or 5 mM GL during recovery, 4-24 h. The protocol:
To determine if BzFβ affects synthesis or cycling of the MHC class I molecules, the class I molecule/peptide complexes were stripped from the surface of DC2.4 cells using a citric acid buffer, then treated with 25 μg/mL BzFβ, 5 mM of the dipeptide GL, or 3 μg/mL BFA (see Example 4) as a negative control.
An acid wash to strip the cell surface of MHC class I was performed as described with modifications. (Montealegre, et al., Dissociation of β2-microglobulin determines the surface quality control of major histocompatibility complex class I molecules. FASEB. 2015 July; 29(7):2780-8). DC2.4 were incubated overnight at 37° C. at 1×10^5. Cells were washed for 2 min in acidic buffer [(pH 2.5) 465 mM Citric acid, 35 mM sodium citrate, in PBS with 1% v/v FBS] or neutral buffer [(pH 7.4) PBS with 1% v/v FBS]. Afterwards the pH was neutralized by the addition of cDMEM. The cells were washed with PBS and treated with BzFβ or GL in cDMEM for various times to allow for MHC class I recovery at 37° C. Cells were washed and stained with an H-2Kb-specific antibody (Invitrogen, cat. no. 12-5958-82) and analyzed by flow cytometry as described previously
MHC I recovery on the cell surface at various time points was detected by flow cytometry using the PE-labeled MHC class I H-2Kb specific antibody (AF6-88.5.5.3). […] At 6 hours >60% of the MHC class I molecules recovered, seen in FIG. 14.

Experiment [5] deals with T2, MHCI/SIINFEKL complex on DC2.4 (Mus musculus, UniProt P01901).
T2 construct: DC2.4 are a C57Bl/6 lineage murine cell line and as such they express MHC class I H-2Kb and H-2Db; endogenous in cells; host or cells: DC2.4 (murine dendritic cell line, from Dr. Kenneth Rock)
T2 sequence (P01901 22-369): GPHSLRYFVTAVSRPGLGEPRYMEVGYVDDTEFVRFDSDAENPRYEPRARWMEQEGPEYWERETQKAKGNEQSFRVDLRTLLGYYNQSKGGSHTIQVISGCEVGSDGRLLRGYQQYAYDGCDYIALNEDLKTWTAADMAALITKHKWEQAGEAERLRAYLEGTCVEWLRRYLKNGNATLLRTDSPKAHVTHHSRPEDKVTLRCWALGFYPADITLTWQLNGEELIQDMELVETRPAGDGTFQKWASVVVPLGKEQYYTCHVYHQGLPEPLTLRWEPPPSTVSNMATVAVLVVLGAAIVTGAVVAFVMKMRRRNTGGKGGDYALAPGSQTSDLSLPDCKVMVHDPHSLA
T2 sequence (P01887 21-119 partner): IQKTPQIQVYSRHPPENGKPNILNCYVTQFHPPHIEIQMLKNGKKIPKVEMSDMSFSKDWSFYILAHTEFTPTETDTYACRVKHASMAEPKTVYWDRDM
The experiment in a line: Displacement of SIINFEKL from DC2.4 after peptide pulse.

Experiment [6] has as its system DC2.4 cells presenting SIINFEKL to B3Z CD8+ T cell hybridoma. The experiment in a line: B3Z activation by SIINFEKL-pulsed DC2.4 (CPRG β-gal assay). The following applies: doses up to 50 μg/mL (265 μM), 0.5 nM SIINFEKL
The protocol: DC2.4 cells (2.5×10^4 cells/well) were seeded at 100 μL/well in 96 well tissue culture white sided/white bottom plate and incubated overnight to allow for cell adherence. 37° C. in an atmosphere containing 5% CO2 and 95% humidity. Following pre-treatment of the DC2.4 cells (1-24 h) with escalating doses of the test molecules, the cells were washed, pulsed with 0.5 nM of the MHC class I H-2Kb peptide, SIINFEKL, for 1 h, and then co-cultured with the CD8+ T cell hybridoma, B3Z.
The level of B3Z cell activation and the effects of the various test molecules on B3Z activation were quantified in cell lysates using the β-gal chromogenic substrate, CPRG. The media was removed and 100 μL of 250 μM CPRG reconstituted in the lysis buffer (1×DPBS, 0.2% v/v saponin, 20 mM magnesium chloride) was added directly to each well. Cells were maintained at 37° C. prior to measurement. The absorbance at 560 nm (700 nm for background) was intermittently monitored using a BioTek Synergy HTX multimode microplate reader (Winooski, VT) to detect β-gal activity. CPRG lysis buffer and B3Z cells only served as the negative controls. All treatments were performed in triplicate and all experiments were repeated a minimum of three times.
Activation of B3Z T cell hybridoma cells was assessed following their exposure to various MHC class I H-2K^b positive cell lines presenting the SIINFEKL peptide. B3Z are a CD8+ SIINFEKL peptide specific T-cell hybridoma expressing a beta-galactosidase (β-gal) reporter gene driven by NF-AT elements on the interleukin 2 (IL-2) promoter. […] Activation of B3Z leads to production of β-gal whose presence can be quantified using the optimized detection assay described by Jendresen et al. (Jendresen, et al., An improved CPRG colorimetric ligand-receptor signal transduction assay based on beta-galactosidase activity in mammalian BWZ-reporter cells. J Pharmacol Toxicol Methods. 2018 March-April; 90:67-75).
To stimulate β-gal production in the B3Z, the H-2Kb murine cell lines, DC2.4, B16F10, and E.G7-OVA, or freshly isolated murine splenocytes, were plated at a density of 2.5 or 5×10^4 cells/well (100 μL/well in 96 well plates) and cultured overnight at 37° C. in an atmosphere containing 5% CO2 and 95% humidity. The cells were washed with DPBS and then treated for 1-24 h with the indicated concentrations of BzFβ suspended in complete media. Vehicle controls were always included. […]
To detect activation of the B3Z cells, the media was removed and 100 μL of 250 µM CPRG reconstituted in the lysis buffer (1×DPBS, 0.2% v/v saponin, 20 mM magnesium chloride) was added directly to each well. […] The absorbance at 560 nm (700 nm for background) was intermittently monitored using a BioTek Synergy HTX multimode microplate reader (Winooski, VT) to detect β-gal activity. […]

The mark [7] stands for this setting: DC2.4 pulsed with SIINFEKL, data not shown.
The mark [8] stands for this setting: DC2.4 pulsed with […], data not shown.

The text below walks through data of US20250381165A1, “Method of Use for Benzofuran Compounds” (Tampa Bay Research Institute, Inc., priority 2024, published 2025).

Where two headings read alike, the source gives them in different places.

With `C[C@H]1CCC/C=C/[C@@H]2C[C@H](O)C[C@H]2[C@H](O)/C=C/C(=O)O1` [BFA, Brefeldin A], in experiment [1] (DC2.4, 3 μg/mL BFA 1 h pretreatment, 0.5 mg/mL OVA), the “effect of BFA on B3Z activation with OVA as antigen source” value was “significantly suppressed”.

As for `CC(C)CC(NC(=O)CN)C(=O)O` (stereo not drawn) [GL, Glycine-leucine dipeptide, reference compound], in experiment [2] (co-treatment with 1 mg/mL OVA, GL at 10 mM), the “B3Z activation by B16F10, OVA” value is reported as “no effect on the uptake or processing of OVA”. For the same compound, the “B3Z activation by B16F10, SIINFEKL” value in experiment [2] (pre-treatment, 1 h pulse 2 nM SIINFEKL, BzFβ 25, 50 μg, GL 10 mM) is “significantly enhance B3Z activation”. For the same compound, the “decay rate of SIINFEKL / stability of H-2Kb/SIINFEKL complex” value in experiment [3] is “no increase in overall stability”. Also, in experiment [4], the “MHC class I recovery after acid stripping” value was “no increase in MHC class I production”. The “MHCI/SIINFEKL complex staining versus untreated cells” value in experiment [5] (5 mM GL after 1 h pulse 30 nM SIINFEKL, p=0.0027) is on record as “significantly reduced”. Moreover, the “concentration of dipeptides required relative to BzFβ” value in experiment [5] (displace or enhance peptide binding) was determined as 3 fold.

`COc1cccc2c1C(=O)c1c(O)c3c(c(O)c1C2=O)C[C@@](O)(C(=O)CO)C[C@@H]3O[C@H]1C[C@H](N)[C@H](O)[C@H](C)O1` [doxorubicin, Doxorubicin]: the “inhibition of BzFβ enhancement of B3Z activation” value (“inhibition” for short) in experiment [1] (setting [7]) is “failed to inhibit”.

With `Cn1cnc(N)c2ncnc1-2` [3-methyladenine, 3-Methyladenine], the “inhibition” value in experiment [1] (setting [7]) is “failed to inhibit”.

`CCN(CC)CCCC(C)Nc1ccnc2cc(Cl)ccc12` (stereo not drawn) [chloroquine, Chloroquine]: the “inhibition” value in experiment [1] is “failed to inhibit”.

With `O=C(O)C=Cc1ccc2c(c1)CCO2` [molecule #2, 3-(2,3-dihydro-1-benzofuran-5-yl)acrylic acid], in experiment [6], the “B3Z activation by analog-treated DC2.4” value is listed as “failed to evoke activation of the B3Z response”.

As for `C=C1[C@@H](C)[C@H]2[C@H](Cc3ccccc3)NC(=O)[C@]23[C@H](OC(C)=O)/C=C/[C@@](C)(O)C(=O)[C@@H](C)C/C=C/[C@H]3[C@@H]1O` [cytochalasin D, Cytochalasin D], the “inhibition” value in experiment [1] (setting [8]) is given as “failed to inhibit”.

Regarding `C[C@@H]1C[C@@H]([C@H](O)CC2CC(=O)NC(=O)C2)C(=O)[C@@H](C)C1` [cycloheximide, Cycloheximide], the “inhibition” value in experiment [1] (setting [8]) is given as “failed to inhibit”.

`CO/C1=C\C(C)=C\[C@@H](C)[C@@H](O)[C@@H](C)C/C(C)=C/C=C/[C@H](OC)[C@@H]([C@@H](C)[C@@H](O)[C@H](C)[C@@]2(O)C[C@@H](O)[C@H](C)[C@@H](C(C)C)O2)OC1=O` [Bafilomycin A1]: the “inhibition” value in experiment [1] (setting [8]) is reported as “failed to inhibit”.

For the compound `O=C(O)/C=C/c1ccc2c(c1)OCO2` [molecule #4, (2E)-3-(1,3-benzodioxol-5yl)acrylic acid], the “B3Z activation by analog-treated DC2.4” value in experiment [6] is recorded as “failed to evoke activation of the B3Z response”.
